According to patent publication US10457916B2, “Method for inducing differentiation of insulin-producing cells” (TOKYO INSTITUTE OF TECHNOLOGY, priority 2014, dated 2019):

Legend:
Format in all cases: cell-based, human
[1] = system: differentiated cells at the end of stage 5; experiment: C-peptide secretion in response to glucose and insulin secretagogues (ELISA); settings: 1 hr, versus 2.5 mM glucose without secretagogues; 30 mM KCl, 100 μM tolbutamide, 2 μM Bay K8644, 0.5 mM IBMX, 250 μM carbachol
Procedure: (§1) The differentiated cells at the end of stage 5 were initially incubated at 37° C. for 30 min with DMEM (Life Technologies) containing minimal essential medium, 2.5 mM glucose and 1% B27 Supplement Xeno-Free CTS. This initial incubation was regarded as washing. Subsequently, the medium was discarded and then the cells were incubated with DMEM (100 μl per well) containing 2.5 mM glucose at 37° for 1 hr. After collecting the supernatant, the same cells were further cultured for 1 hr in 20 mM glucose-containing DMEM or 2.5 mM glucose-containing DMEM supplemented with various stimulants, e.g., 2 μM (−)-Bay K8644 (Sigma-Aldrich), 100 μM tolbutamide (Wako), 250 μM carbachol (Sigma-Aldrich), 0.5 mM IBMX or 30 mM potassium chloride (KCl) (Wako). The supernatant was collected again and stored at −20° C. until analysis. Finally, the cells were lysed with 0.01% Triton X-100 in PBS containing 1% protease inhibitor cocktail (Nacalai Tesque). Intracellular C-peptide and protein levels were quantitatively determined. C-peptide level was measured using a human C-peptide ELISA kit (ALPCO Diagnostics) according to the manufacturer's instructions. The total protein in cell lysate was quantitatively determined using a Bio-Rad reagent kit (Bio-Rad). The amount of C-peptide was normalized against the corresponding amount of the total protein.

[2] = system: endocrine progenitor cells; experiment: Stage 5 differentiation into endocrine cells, immunocytochemistry; settings: for proportion of PDX1-positive/CP-negative cells / proportion of CP single-positive cells: end of stage 5; for proportion of CP single-positive cells: added to basal medium with exendin-4 and nicotinamide
Procedure: (§2) To this medium were added 50 ng/ml exendin-4 (Ex-4; Cell Sciences), 10 mM nicotinamide (NA; Sigma-Aldrich), and/or 100 μM 3-isobutyl-1-methylxanthine (IBMX; phosphodiesterase inhibitor; Wako), and/or 10 μM forskolin (FRKL; adenylate cyclase activator; Wako). The media were changed every two days.

[3] = system: endocrine progenitor cells; experiment: Intracellular C-peptide content of cells differentiated at stage 5 (ELISA); settings: differentiated cells at the end of stage 5
Procedure: as §2
as §1, with “The supernatant was collected again and stored at −20° C. until analysis. Finally, the cells were lysed with 0.01% Triton X-100 in PBS containing 1% protease inhibitor cocktail (Nacalai Tesque).” left out, “The amount of C-peptide was normalized against the corresponding amount of the total protein.” left out

[4] = system: endocrine progenitor cells; experiment: Stage 5 differentiation into endocrine cells, quantitative RT-PCR
Procedure: as §2

PG cells [5] = experiment: Stage 3 differentiation into pancreatic progenitor cells, immunocytochemistry
From the text: (§3) The medium was changed every two days.

PG cells [6] = experiment: Stage 3 differentiation into pancreatic progenitor cells, quantitative RT-PCR; settings: higher concentrations of NOGGIN at stage 3, versus Nog 100
From the text: as §3

[7] = 200 ng/ml NOGGIN in stage-3 media
[8] = 200 ng/ml NOGGIN in stage-3 media with RA, KAAD-cyclopamine, SB431542

`COC(=O)C1=C(C)NC(C)=C([N+](=O)[O-])C1c1ccccc1C(F)(F)F` (single isomer, unassigned; (-)) [(−) BAY K8644] was tested. Which “increase of C-peptide secretion” value [1] did it give?
Its value is “approximately 4.9 fold”.

For `C=C[C@@]1(C)CC(=O)[C@]2(O)[C@@]3(C)[C@@H](O)CCC(C)(C)[C@@H]3[C@H](O)[C@H](OC(C)=O)[C@@]2(C)O1` [FRKL, forskolin], which “proportion of PDX1-positive/CP-negative cells” value [2] is on record?
Its value is “approximately 27%”.

What about the “proportion of CP single-positive cells” value [2] of the same molecule?
Its value is 5.6-6.4%.

What about the “intracellular C-peptide contents” value [3] of the same molecule?
The value was “approximately 62 ng/mg protein”.

Which results are given for `CC(C)Cn1c(=O)n(C)c(=O)c2[nH]cnc21` [IBMX, 3-isobutyl-1-methylxanthine]?
proportion of PDX1-positive/CP-negative cells [2]: approximately 22%; proportion of CP single-positive cells [2]: 6.5-6.7%; expression levels of β-cell specific genes ([4]; IBMX-induced cells versus FRKL-induced cells): relatively higher; INS expression ([4]; added to basal medium (DMEM/F12, 1% B27, exendin-4 and nicotinamide) at stage 5, versus DMSO): significantly upregulated; expression levels of β-cell maturity genes (PDX1, NKX6.1, MAF-A, ISL-1, UCN3, GCK, IAPP, SLC30A8) ([4]; end of stage 5, versus DMSO-induced cells): remarkably higher; intracellular C-peptide contents [3]: approximately 66 ng/mg protein; increase of C-peptide secretion [1]: approximately 4.9 fold

Which “increase of C-peptide secretion” value [1] does the source give for `[Cl-].[K+]` [KCl, potassium chloride] here?
The value was “approximately 8.3 fold”.

How did the “increase of C-peptide secretion” value [1] turn out when `C[N+](C)(C)CCOC(N)=O` [carbachol] was run?
Its value is “approximately 7.0 fold”.

For `CCCCNC(=O)NS(=O)(=O)c1ccc(C)cc1` [tolbutamide], which “increase of C-peptide secretion” value [1] is on record?
The value was “approximately 3.0 fold”.

B1: NOGGIN: recombinant human NOGGIN, BMP signaling inhibitor (R&D Systems) (protein, UniProt Q13253 28-232, looked up)
Noggin: QHYLHIRPAPSDNLPLVDLIEHPDPIFDPKEKDLNETLLRSLLGGHYDPGFMATSPPEDRPGGGGGAAGGAEDLAELDQLLRQRPSGAMPSEIKGLEFSEGLAQGKKQRLSKKLRRKLQMWLWSQTFCPVLYAWNDLGSRFWPRYVKVGSCFSKRSCSVPEGMVCKPSKSVHLTVLRWRCQRRGGQRCGWIPIQYPIISECKCSC
What does the source list for B1?
AFP-positive hepatic cells and CDX2-positive intestinal progenitor cells appearing (PG cells [5]; 100 ng/ml NOGGIN at stage 3): considerable proportion; AFP-positive cells in the total DAPI-positive cells (PG cells [5]; [7]): 4%; CDX2-positive cells in the total DAPI-positive cells (PG cells [5]; [7]): 8%; PDX1-positive cells co-expressing HNF-6 (PG cells [5]; [8]): about 62%; PDX1-positive cells co-expressing SOX9 (PG cells [5]; [8]): about 59%; numbers of AFP-positive hepatic cells and CDX2-positive intestinal progenitor cells (PG cells [5]; 200-300 ng/ml NOGGIN at stage 3, versus 100 ng/ml): remarkably reduced; expression level of early-stage pancreatic dorsal bud gene HLXB9 (PG cells [6]): remarkably upregulated; expression levels of PDX-1 and posterior foregut genes HNF6 and NKX6.1 (PG cells [6]): remarkably upregulated; gene expression levels of CDX2 and AFP (PG cells [6]): remarkably reduced; proportion of EC cells ([2]; NOGGIN at 200 ng/ml compared to 100 ng/ml at stages 3 and 4): higher proportion
